Target: MAPK14 (human) (UniProt Q16539)
Experiment: Inhibition of MAPK14 Kinase Activity

MAPK14 (human), sequence (Q16539 whole entry, looked up): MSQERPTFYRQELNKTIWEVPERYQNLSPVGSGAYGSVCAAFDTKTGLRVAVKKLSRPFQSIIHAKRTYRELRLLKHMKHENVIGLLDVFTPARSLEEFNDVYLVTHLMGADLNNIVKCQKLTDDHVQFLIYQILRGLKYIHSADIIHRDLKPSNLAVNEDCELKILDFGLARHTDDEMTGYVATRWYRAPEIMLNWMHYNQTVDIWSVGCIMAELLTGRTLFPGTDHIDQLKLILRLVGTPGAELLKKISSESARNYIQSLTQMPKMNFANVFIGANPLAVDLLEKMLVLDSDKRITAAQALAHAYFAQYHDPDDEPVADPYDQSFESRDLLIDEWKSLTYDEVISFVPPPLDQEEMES

Point of comparison: CC(C)c1noc(-c2ccc(F)cc2)c1-c1ccnc(NC(C)c2ccccc2)c1 (stereo not drawn), IC50 550 nM. Against it:
- Fc1ccc(-c2conc2-c2ccncc2)cc1 — 2.2-fold higher, 1220 nM
- Fc1ccc(-c2oncc2-c2ccnc(Cl)c2)cc1 — 76-fold higher, 42000 nM
- C[S+]([O-])c1ccc(-c2cc(-c3ccc(F)cc3)c(-c3ccncc3)[nH]2)cc1 (stereo not drawn) — 2.2-fold higher, 1220 nM
- CC(C)c1noc(-c2ccc(F)cc2)c1-c1ccnc(NC2CC2)c1 — 3.6-fold higher, 2000 nM
- Fc1ccc(-c2oncc2-c2ccnc(OCCc3ccccc3)c2)cc1 — 62-fold higher, 34000 nM
- CN1CCC(O)(c2nc(-c3ccc(F)cc3)c(-c3ccncc3)[nH]2)CC1 — 6.1-fold lower, 90 nM
- Fc1ccc(-c2oncc2-c2ccnc(Br)c2)cc1 — 160-fold higher, 89000 nM
- Fc1ccc(-c2oncc2-c2ccncc2)cc1 — 75-fold higher, 41000 nM
- CC(C)Oc1cc(-c2cnoc2-c2ccc(F)cc2)ccn1 — 56-fold higher, 31000 nM
- Fc1ccc(-c2nc[nH]c2-c2ccncc2)cc1 — 3.2-fold lower, 170 nM
- Fc1ccc(-c2[nH]c(-c3ccc(Cl)cc3)cc2-c2ccncc2)cc1 — 2.8-fold lower, 200 nM
- CCCCOc1cc(-c2cnoc2-c2ccc(F)cc2)ccn1 — 38-fold higher, 21000 nM
- CCOc1cc(-c2cnoc2-c2ccc(F)cc2)ccn1 — 150-fold higher, 82000 nM
- CCOc1cc(-c2c(C(C)C)noc2-c2ccc(F)cc2)ccn1 — 100-fold higher, 56000 nM
- CC(C)c1noc(-c2ccc(F)cc2)c1-c1ccnc(NCC2CC2)c1 — 2.4-fold higher, 1300 nM
- COc1cc(-c2cnoc2-c2ccc(F)cc2)ccn1 — 91-fold higher, 50000 nM
- CCCNc1cc(-c2c(C(C)C)noc2-c2ccc(F)cc2)ccn1 — 7.3-fold higher, 4000 nM
- CN1CCC(O)(c2nc(-c3ccc(F)cc3)c(-c3ccncc3)o2)CC1 — 1.6-fold lower, 350 nM
- Nc1onc(-c2ccncc2)c1-c1ccc(F)cc1 — 2.9-fold higher, 1610 nM
- Fc1ccc(-c2oc(-c3ccc(Cl)cc3)cc2-c2ccncc2)cc1 — within 1.5-fold, 630 nM
- CCCCCNc1cc(-c2c(C(C)C)noc2-c2ccc(F)cc2)ccn1 — 150-fold higher, 82000 nM
- CN1CCC(O)(c2nc(-c3ccncc3)c(-c3ccc(F)cc3)o2)CC1 — 3.6-fold higher, 2000 nM

Reference: the Kinase Knowledgebase extract (Sharma et al. 2016)
